{
  "source": "patent US20260355225A1",
  "about": "(priority 2022, published 2026)",
  "key": {"[1]": {"system": "HeLa TZMBL cells", "experiment": "Cytotoxicity of D-xylose alone or + insulin, MTT assay, absence of viral infection (Example 2)"}, "[2]": {"experiment": "Cytotoxicity of D-xylose, MTT assay, absence of viral infection (Example 1)", "assay_type": "cell-based", "details": "monkey, vero cells, remdesivir at the time of infection, read-out: Viability percentage", "experimental": "(§1) Cells (Vero E6) were used, with two modes of administration: either at the same time or 6 h before infection with SARS-CoV-2 (isolated early).\n(§2) The readout for this test is CPE, so the infection will be stopped at 72 hpi (hours post-infection), and the compound will remain for the duration of the experiment. In parallel, the cytotoxicity of the same compound concentrations will be tested in the absence of viral infection.\n(§3) The day before the experiment, the 8,000 cells/well are seeded in two 96-well plates (clear, Sarstedt), one for the antiviral study and one for the cytotoxicity study.\n(§4) 134.4 μl of the 1 M composition is transferred to 1,465.6 μl of infection medium (=84 mM, twice the final maximum concentration).\n(§5) Next, the cell support in the cytotoxicity plate is removed.\n(§6) Immediately afterwards, 50 μl of undiluted infection medium is added to all the wells.\n(§7) Next, 50 μl of infection medium without diluent is added to columns 4 to 6.\n(§8) Next, the plate is incubated at 37 °C, 5% CO2 for 48 h.\n(§9) After 72 h, when the CPE is evident, an MTT assay is performed for the antiviral and cytotoxicity plates."}, "[3]": {"system": "Vero AD cells", "experiment": "Cytotoxicity of D-xylose, MTT assay, absence of viral infection (Example 1)", "assay_type": "cell-based", "details": "remdesivir at the time of infection", "experimental": "as §1, §2, §3, §4, §5, §6, §7, §8, §9"}, "[4]": {"system": "SARS-CoV-2", "experiment": "Antiviral assay, inhibition of virus-induced cytopathic effect (CPE) of SARS-CoV-2 by MTT assay (Example 1)", "details": "remdesivir at the time of infection; for Viability percentage: 4320 min"}, "[5]": {"system": "SARS-CoV-2", "details": "pre-incubation of 25 minutes prior to infection; cited from earlier work"}, "[6]": {"system": "HIV-1 NL4-3", "experiment": "Antiviral assay against HIV-1 NL4-3, percentage of infected cells by immunofluorescence (Example 2)", "details": "Human immunodeficiency virus 1, NL43, 48 h"}, "[7]": {"experiment": "Antiviral assay against HIV-1 NL4-3, percentage of infected cells by immunofluorescence (Example 2)", "details": "human, hela tzmbl cells, Viability Percentages, replicate wells"}, "[8]": {"experiment": "Cytotoxicity of D-xylose alone or + insulin, MTT assay, absence of viral infection (Example 2)", "details": "human, hela tzmbl cells"}, "[9]": {"system": "glycated hemoglobin (HbA1c)", "details": "healthy person; cited from earlier work"}, "[10]": {"details": "Triton added to untreated cells as control"}, "[11]": {"details": "AZT 0.002 μM, 2880 min, 0.002 µM"}, "[12]": {"details": "AZT 0.007 μM, 2880 min, 0.007 µM"}, "[13]": {"details": "AZT 0.062 μM, 2880 min, 0.062 µM"}, "[14]": {"details": "AZT 0.556 μM, 2880 min, 0.556 µM"}, "[15]": {"details": "AZT 1.667 μM, 2880 min, 1.667 µM"}},
  "note": "“And” between values parts separate entries of the source, which are not always exact repeats. Equal entries are not always repeated.",
  "data": [
    {"compound": "Triton [reference compound]", "values": [
      {"measurement": "Cytotoxicity percentage", "setting": "[1]; [10]", "value": "99.99% and 100.03%"},
      {"measurement": "Results for Cytotoxicity (MTT readout)", "setting": "[1]; [10]", "value": "0.040 and 0.039"},
      {"measurement": "Viability percentage", "setting": "[1]; [10]", "value": "0.01% and −0.03%"}
    ]},
    {"compound": "CCC(CC)COC(=O)[C@H](C)N[P@](=O)(OC[C@H]1O[C@@](C#N)(c2ccc3c(N)ncnn23)[C@H](O)[C@@H]1O)Oc1ccccc1", "note": "[Remdesivir, reference compound]", "values": [
      {"measurement": "viability at […]", "setting": "[2]; 0.16 μm", "value": 100, "unit": "%"},
      {"measurement": "viability at 0.31 µM", "setting": "[2]; 0.31 μm", "value": 106, "unit": "%"},
      {"measurement": "viability at 0.63 µM", "setting": "[2]; 0.63 μm", "value": 102, "unit": "%"},
      {"measurement": "viability at 1.25 µM", "setting": "[2]; 1.25 μm", "value": 103, "unit": "%"},
      {"measurement": "viability at 2.5 µM", "setting": "[2]; 2.5 μm", "value": 112, "unit": "%"},
      {"measurement": "viability at 5 µM", "setting": "[2]; 5 μm", "value": 110, "unit": "%"},
      {"measurement": "viability at 10 µM", "setting": "[2]; 10 μm", "value": 105, "unit": "%"},
      {"measurement": "viability at 20 µM", "setting": "[2]; 20 μm", "value": 101, "unit": "%"},
      {"measurement": "Viability percentage", "setting": "[3]; 0.31 μm", "value": 99.84, "unit": "%"},
      {"measurement": "Viability percentage", "setting": "[3]; 0.63 μm", "value": 108.33, "unit": "%"},
      {"measurement": "Viability percentage", "setting": "[3]; 1.25 μm", "value": "110.83% and 112.82%"},
      {"measurement": "Viability percentage", "setting": "[3]; 2.5 μm", "value": "107.83% and 115.32%"},
      {"measurement": "Viability percentage", "setting": "[3]; 5 μm", "value": 122.31, "unit": "%"},
      {"measurement": "Viability percentage", "setting": "[3]; 10 μm", "value": 106.83, "unit": "%"},
      {"measurement": "Viability percentage", "setting": "[3]; 20 μm", "value": "94.35% and 93.35%"},
      {"measurement": "absorbance at 570 nm", "setting": "[4]; 0.16 μm", "value": "0.086 and 0.077 and 0.078"},
      {"measurement": "absorbance at 570 nm", "setting": "[4]; 0.31 μm", "value": "0.084 and 0.098"},
      {"measurement": "absorbance at 570 nm", "setting": "[4]; 0.63 μm", "value": 0.094},
      {"measurement": "absorbance at 570 nm", "setting": "[4]; 1.25 μm", "value": "0.127 and 0.137 and 0.128"},
      {"measurement": "Viability percentage", "setting": "[4]; 1.25 μm", "value": "47.72% and 46.55% and 58.30%"},
      {"measurement": "absorbance at 570 nm", "setting": "[4]; 2.5 μm", "value": "0.178 and 0.195"},
      {"measurement": "Viability percentage", "setting": "[4]; 2.5 μm", "value": "92.36% and 106.46% and 126.43%"},
      {"measurement": "absorbance at 570 nm", "setting": "[4]; 5 μm", "value": "0.198 and 0.215 and 0.174"},
      {"measurement": "Viability percentage", "setting": "[4]; 5 μm", "value": "101.76% and 129.96% and 149.93%"},
      {"measurement": "absorbance at 570 nm", "setting": "[4]; 10 μm", "value": "0.169 and 0.199 and 0.188"},
      {"measurement": "Viability percentage", "setting": "[4]; 10 μm", "value": "118.21% and 95.89% and 131.13%"},
      {"measurement": "Viability percentage", "setting": "[4]; 20 μm", "value": "80.62% and 86.49% and 79.44%"}
    ]},
    {"compound": "heparin", "values": [
      {"measurement": "inhibition of SARS-CoV-2 viral attachment", "setting": "[5]", "value": "inhibits SARS-CoV-2 viral attachment"}
    ]},
    {"compound": "Cc1cn([C@H]2C[C@H](N=[N+]=[N-])[C@@H](CO)O2)c(=O)[nH]c1=O", "note": "[AZT, 3-azido-3-deoxythymidine, reference compound]", "values": [
      {"measurement": "activity at 0.002 µM", "setting": "[6]; read-out: % Infection, AZT 0.002 μM, replicate wells", "value": 13.3, "unit": "%"},
      {"measurement": "activity at 0.007 µM", "setting": "[6]; read-out: % Infection, AZT 0.007 μM, replicate wells", "value": 9.89, "unit": "%"},
      {"measurement": "activity at 0.062 µM", "setting": "[6]; read-out: % Infection, AZT 0.062 μM, replicate wells", "value": 5.07, "unit": "%"},
      {"measurement": "activity at 0.556 µM", "setting": "[6]; read-out: % Infection, AZT 0.556 μM, replicate wells", "value": 1.7, "unit": "%"},
      {"measurement": "activity at 1.667 µM", "setting": "[6]; read-out: % Infection, AZT 1.667 μM, replicate wells", "value": 0.89, "unit": "%"},
      {"measurement": "activity at 5 µM", "setting": "[6]; read-out: % Infection, AZT 5.000 μM, replicate wells", "value": 0.47, "unit": "%"},
      {"measurement": "viability at 48 h, 0.002 µM", "setting": "[7]; AZT 0.002 μM", "value": 29.9, "unit": "%"},
      {"measurement": "viability at 48 h, 0.007 µM", "setting": "[7]; AZT 0.007 μM", "value": 48.2, "unit": "%"},
      {"measurement": "viability at 48 h, 0.062 µM", "setting": "[7]; AZT 0.062 μM", "value": 74.2, "unit": "%"},
      {"measurement": "viability at 48 h, 0.556 µM", "setting": "[7]; AZT 0.556 μM", "value": 92.5, "unit": "%"},
      {"measurement": "viability at 48 h, 1.667 µM", "setting": "[7]; AZT 1.667 μM", "value": 96.8, "unit": "%"},
      {"measurement": "viability at 48 h, 5 µM", "setting": "[7]; AZT 5.000 μM", "value": 99.1, "unit": "%"},
      {"measurement": "cytotoxicity at 48 h, 0.007 µM", "setting": "[8]; Cytotoxicity percentage, AZT 0.007 μM", "value": 5.07, "unit": "%"},
      {"measurement": "cytotoxicity at 48 h, 0.062 µM", "setting": "[8]; Cytotoxicity percentage, AZT 0.062 μM", "value": 4.36, "unit": "%"},
      {"measurement": "viability at 48 h, 0.002 µM", "setting": "[8]; Viability percentage, AZT 0.002 μM", "value": 102, "unit": "%"},
      {"measurement": "viability at 48 h, 0.007 µM", "setting": "[8]; Viability percentage, AZT 0.007 μM", "value": 94.9, "unit": "%"},
      {"measurement": "viability at 48 h, 0.062 µM", "setting": "[8]; Viability percentage, AZT 0.062 μM", "value": 95.6, "unit": "%"},
      {"measurement": "viability at 48 h, 0.556 µM", "setting": "[8]; Viability percentage, AZT 0.556 μM", "value": 97.6, "unit": "%"},
      {"measurement": "viability at 48 h, 1.667 µM", "setting": "[8]; Viability percentage, AZT 1.667 μM", "value": 102, "unit": "%"},
      {"measurement": "viability at 48 h, 5 µM", "setting": "[8]; Viability percentage, AZT 5.000 μM", "value": 96.9, "unit": "%"},
      {"measurement": "Results for Cytotoxicity (MTT readout)", "setting": "[1]; AZT 0.002 μM", "value": "2.455 and 2.474 and 2.438"},
      {"measurement": "Cytotoxicity percentage", "setting": "[1]; [11]", "value": "−1.89% and −2.69% and −1.17%"},
      {"measurement": "Viability percentage", "setting": "[1]; [11]", "value": "102.69% and 101.17%"},
      {"measurement": "Results for Cytotoxicity (MTT readout)", "setting": "[1]; AZT 0.007 μM", "value": "2.29 and 2.333 and 2.278"},
      {"measurement": "Cytotoxicity percentage", "setting": "[1]; [12]", "value": "3.26% and 5.58%"},
      {"measurement": "Viability percentage", "setting": "[1]; [12]", "value": "96.74% and 94.42%"},
      {"measurement": "Results for Cytotoxicity (MTT readout)", "setting": "[1]; AZT 0.062 μM", "value": "2.307 and 2.356 and 2.337"},
      {"measurement": "Cytotoxicity percentage", "setting": "[1]; [13]", "value": "2.29% and 3.09%"},
      {"measurement": "Viability percentage", "setting": "[1]; [13]", "value": 97.71, "unit": "%"},
      {"measurement": "Results for Cytotoxicity (MTT readout)", "setting": "[1]; AZT 0.556 μM", "value": "2.353 and 2.414 and 2.406"},
      {"measurement": "Cytotoxicity percentage", "setting": "[1]; [14]", "value": "2.42% and −0.16% and 0.18%"},
      {"measurement": "Viability percentage", "setting": "[1]; [14]", "value": "100.16% and 99.82%"},
      {"measurement": "Results for Cytotoxicity (MTT readout)", "setting": "[1]; AZT 1.667 μM", "value": "2.46 and 2.505 and 2.469"},
      {"measurement": "Cytotoxicity percentage", "setting": "[1]; [15]", "value": "−2.10% and −4.00% and −2.48%"},
      {"measurement": "Viability percentage", "setting": "[1]; [15]", "value": "104.00% and 102.48%"},
      {"measurement": "Results for Cytotoxicity (MTT readout)", "setting": "[1]; AZT 5.000 μM", "value": "2.337 and 2.402 and 2.36"},
      {"measurement": "Cytotoxicity percentage", "setting": "[1]; AZT 5.000 μM, 2880 min, 5 µM", "value": "3.09% and 0.35% and 2.12%"},
      {"measurement": "Viability percentage", "setting": "[1]; AZT 5.000 μM, 2880 min, 5 µM", "value": "99.65% and 97.88%"}
    ]},
    {"compound": "OC[C@@H](O)[C@H](O)[C@@H](O)CO", "note": "[xylitol, reference compound]", "values": [
      {"measurement": "effect on glycated hemoglobin (HbA1c) levels", "setting": "[9]", "value": "little or no effect"}
    ]}
  ]
}
